According to PMC10517971, “An inverse agonist of orphan receptor GPR61 acts by a G protein-competitive allosteric mechanism” (Nature Communications, 2023):
Where “and” joins values, the source holds several entries; their conditions need not be identical. Equal values may be shown once. Read-outs that look alike come from different tables or passages of the source.

Target: T1, human GPR61 (Homo sapiens, UniProt Q9BZJ8)
T1 construct: expressed in transfected cells; host or cells: CHO-K1, transient (Fugene6)
T1 sequence (Q9BZJ8 whole entry): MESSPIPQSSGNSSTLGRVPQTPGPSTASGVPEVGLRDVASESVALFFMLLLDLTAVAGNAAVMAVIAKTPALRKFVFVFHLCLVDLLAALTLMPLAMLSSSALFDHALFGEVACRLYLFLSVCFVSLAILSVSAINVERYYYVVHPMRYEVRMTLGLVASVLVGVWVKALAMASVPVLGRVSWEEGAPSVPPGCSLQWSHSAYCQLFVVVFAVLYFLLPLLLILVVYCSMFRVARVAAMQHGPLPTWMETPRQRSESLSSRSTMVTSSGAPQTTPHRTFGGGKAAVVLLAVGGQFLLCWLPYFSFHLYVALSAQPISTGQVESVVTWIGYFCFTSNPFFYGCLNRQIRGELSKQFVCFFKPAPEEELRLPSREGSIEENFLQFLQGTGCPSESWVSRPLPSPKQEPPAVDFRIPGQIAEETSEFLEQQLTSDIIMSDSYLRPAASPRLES
Assay: Functional cAMP assay (HTRF), transiently transfected CHO-K1 cells, wild-type GPR61 (untagged and HiBit-tagged)
Format: cell-based
Set-up: key to cAMP response (Figure 3e source data): nM cAMP per well, from standard curve
Text: The human GPR61 (reference sequence NM_031936.4) cDNA was synthesized and subcloned into pcDNA5/FRT/TO (Thermo Fisher, Pittsburgh, PA). The pcDNA5/FRT/TO/ human GPR61 plasmid was then transfected into the Flp-In™-CHO Cell Line (Thermo Fisher, Pittsburgh, PA) and a doxycycline-inducible clonal cell line was selected (CHO TREx hGPR61 WT). Sequences encoding untagged and HiBit/hemagglutinin (HA)-tagged versions of the wild-type human GPR61 were synthesized and cloned into pcDNA3.1. The HiBit ([…]) and HA ([…]) tags were sequentially included after the N-terminal initiator methionine. Four single amino acid substitutions (N137A, R140A, V288A, N345A) were then introduced in the untagged and tagged human GPR61 constructs using site-specific mutagenesis. The nucleotide sequences of all receptor constructs were confirmed by automated DNA sequencing.
Parental CHO-K1 cells were maintained at 37 °C in a humidified environment (5% CO2) and grown in Dulbecco’s Modified Eagle Medium (DMEM) F-12 media (Gibco, 11320033) supplemented with 10% FBS, 1% Glutamax (Gibco, 35050061) and 100units/ml penicillin and streptomycin (Gibco, 15140122. Cells were dissociated using a cell dissociation solution (Gibco, 13151-014), counted, and resuspended in complete culture media without antibiotics. Cells were then transiently transfected using Fugene6 (Promega) in a 384-well plate format (Corning, 3570). For each well, 7500 cells were transfected with 5 ng of receptor plasmid, 20 ng of carrier DNA (Promega, PAE4881) and 0.075 μl Fugene6 in a final volume of 25 μl. Fugene6 and DNA were separately diluted in Optimem media (Gibco, 31985070) (1.25 μl final volume each). Fugene6 and DNA solutions were then combined and incubated for 15 min at room temperature. The cell containing solution (22.5 μl) was then added and transfection reactions were mixed and transferred to the assay plate. Following 24 h incubation at 37 °C, wells were rinsed once and 25 μl of HiBit assay buffer (Phenol-red free DMEM F-12 media containing 2% FBS) was added per well. Surface and total receptor expression was measured separately by adding 25 μl per well of the extracellular (Promega, PRN2421) and lytic (Promega, PRN3040) assay solutions, respectively. Plates were incubated for 10 min at room temperature on a shaker and luciferase activity was measured using an EnVision plate reader (Perkin Elmer, Chicago, IL). Expression was normalized as percent of the wild-type receptor signal. Statistical comparisons of expression levels observed with WT versus GPR61 mutants were made by one-way analysis of variance with Dunnett’s post hoc test.
A homogeneous Time-Resolved Fluorescence (HTRF) assay (Perkin Elmer, Dynamic2 kit #) was used to assess receptor basal and inverse agonist activity at human GPR61, GPR62, and GPR101. For routine inverse agonist screening frozen CHO TREx human GPR61, GPR62 and GPR101 cells were used. Cells were thawed, resuspended in complete assay media (DMEM F-12, 10% HI FBS, 100 μg/mL Normocin, 700 μg/mL Hygromycin B and 15 μg/mL Blasticidin) containing 1ug/ml doxycycline, plated in white 384 well plates (Corning, 3570) at a density of 750 cells/well (25 μl/ well) and cultured at 37 °C in an incubator overnight. For studies assessing basal and inverse agonist activity at human GPR61 mutants, CHO-K1 cells were transiently transfected using Fugene6, plated in white 384 well plates (7500 cells/well) and grown overnight at 37 °C, as described for receptor expression studies. […]

Structure (SMILES): CCOc1cc(C)nc(N(CCOC)S(=O)(=O)c2ccc(NCc3c(F)cncc3F)nc2OC)n1 [Compound 1]
- IC50 (Fig. 2d, HiBit-tagged WT, read-out: IC50, cAMP assay, Hibit-tagged GPR61): 10 nM
- IC50 (Fig. 2d, untagged WT, read-out: IC50, cAMP assay, Untagged GPR61): 11 nM
- cAMP response (Figure 3e source data) (HiBit WT, concentration -7.5): 1.38 and 1.77 and 1.31 and 1.26 and 1.43 and 2.44
- cAMP response (Figure 3e source data) (HiBit WT, concentration -8): 2.14 and 2.36 and 1.86 and 2.11 and 3.43
- cAMP response (Figure 3e source data) (HiBit WT, concentration -10): 3.60 and 4.23 and 3.00 and 3.19 and 3.38 and 5.40
- cAMP response (Figure 3e source data) (Untagged WT, concentration -8.5): 3.48 and 4.28 and 2.15 and 2.16 and 4.06 and 4.02
- cAMP response (Figure 3e source data) (Untagged WT, concentration -9): 4.53 and 5.41 and 3.02 and 3.13 and 5.81 and 5.80
- IC50 (wild-type GPR61, untagged and HiBit-tagged, read-out: IC50 in the functional cAMP assay): 10 to 11 nM
